ChEMBL document CHEMBL1201862, “PubChem BioAssay data set” (2004)
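Values below derive from 48-hour exposures of cells grown in 96-well plates, with endpoints linearly interpolated between the two concentrations bracketing the appropriate inhibition level. GI50 is the concentration that inhibits growth by half.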 Activity calls are given as the source filed them. No stated cut-off is given here; in the data, active = GI50 up to about 1.1 µM and inactive = higher.

Assays:
Assay in all cases: DTP human tumour cell line panel, 48 h
[1] = tested on: MDA-MB-435
[2] = tested on: SW-620
[3] = tested on: SK-MEL-5
[4] = tested on: SNB-19
[5] = tested on: T47D
[6] = tested on: COLO 205
[7] = tested on: OVCAR-4
[8] = tested on: EKVX
[9] = tested on: A498
[10] = tested on: SK-MEL-28
[11] = tested on: OVCAR-8
[12] = tested on: OVCAR-5
[13] = tested on: MDA-MB-231
[14] = tested on: U-251
[15] = tested on: OVCAR-3
[16] = tested on: BT-549
[17] = tested on: UACC-257
[18] = tested on: NCI-H226
[19] = tested on: HCC 2998
[20] = tested on: RPMI-8226

Row | Compound | GI50 [1] | GI50 [2] | GI50 [3] | GI50 [4] | GI50 [5] | GI50 [6] | GI50 [7] | GI50 [8] | GI50 [9] | GI50 [10] | GI50 [11] | GI50 [12] | GI50 [13] | GI50 [14] | GI50 [15] | GI50 [16] | GI50 [17] | GI50 [18] | GI50 [19] | GI50 [20]
1 | O=C(O)c1cc2ccccc2c(O)c1O | 1.85 µM (inactive) | 19.7 µM (inactive) | 2.92 µM (inactive) | 17.9 µM (inactive) | 25.8 µM (inactive) | 16.8 µM (inactive) | 19 µM (inactive) | 23.4 µM (inactive) | 26.9 µM (inactive) | 7.03 µM (inactive) | 12.6 µM (inactive) | 16.9 µM (inactive) | 17.7 µM (inactive) | 16.8 µM (inactive) | 13.5 µM (inactive) | 16.1 µM (inactive) | 9.68 µM (inactive) | 13.7 µM (inactive) | 18.8 µM (inactive) | > 52.2 µM (inactive)
2 | COc1ccc(/C=C2\CCC(C)C3=C2NC(=S)NC3c2ccc(OC)c(OC)c2)cc1OC (stereo not given) | 6.3 µM (inactive) | 26.1 µM (inactive) | 12.5 µM (inactive) | 30.4 µM (inactive) | 2.33 µM (inactive) | 8.59 µM (inactive) | 35.4 µM (inactive) | 20.1 µM (inactive) | > 31.6 µM (inactive) | > 31.6 µM (inactive) | 26.1 µM (inactive) | > 31.6 µM (inactive) | 18.2 µM (inactive) | 24.6 µM (inactive) | 24.4 µM (inactive) | 13.3 µM (inactive) | > 31.6 µM (inactive) | > 78 µM (inactive) | 74.1 µM (inactive) | 5.16 µM (inactive)
3 | COc1ccc2[nH]c3c(C)c4ccnc(NCCCN(C)CCCNC(=O)NCCCN(C)CCCNc5nccc6c(C)c7[nH]c8ccc(OC)cc8c7c(C)c56)c4c(C)c3c2c1 | 0.466 µM (active) | 0.202 µM (active) | 0.774 µM (active) | 0.264 µM (active) | 0.69 µM (active) | 0.324 µM (active) | 0.596 µM (active) | 0.925 µM (active) | 1.39 µM (inactive) | 1.48 µM (inactive) | 0.638 µM (active) | 0.843 µM (active) | 0.403 µM (active) | 0.205 µM (active) | 1.29 µM (inactive) | 1.62 µM (inactive) | 1.6 µM (inactive) | 0.526 µM (active) | 0.265 µM (active) | 0.564 µM (active)
4 | Cc1cccc(C2ON=C(c3ccccc3)N2C23CC4CC(CC(C4)C2)C3)c1 (stereo not given) | > 10 µM (inactive) | > 10 µM (inactive) | > 10 µM (inactive) | > 10 µM (inactive) | > 10 µM (inactive) | > 10 µM (inactive) | > 10 µM (inactive) | > 10 µM (inactive) | > 10 µM (inactive) | > 10 µM (inactive) | > 10 µM (inactive) | > 10 µM (inactive) | > 10 µM (inactive) | > 10 µM (inactive) | > 10 µM (inactive) | > 10 µM (inactive) | > 10 µM (inactive) | > 10 µM (inactive) | > 10 µM (inactive) | > 10 µM (inactive)
5 | COc1ccc(CNC(=O)[C@H](Cc2ccc(O)cn2)NC(C)=O)cc1OC | > 100 µM (inactive) | > 100 µM (inactive) | > 100 µM (inactive) | > 100 µM (inactive) | > 100 µM (inactive) | > 100 µM (inactive) | > 100 µM (inactive) | > 100 µM (inactive) | > 100 µM (inactive) | > 100 µM (inactive) | > 100 µM (inactive) | > 100 µM (inactive) | > 100 µM (inactive) | > 100 µM (inactive) | > 100 µM (inactive) | > 100 µM (inactive) | > 100 µM (inactive) | > 100 µM (inactive) | > 100 µM (inactive) | > 100 µM (inactive)
6 | O=C(NO)c1ccc(OCc2ccccc2)cc1 | 29.2 µM (inactive) | 24.5 µM (inactive) | 45.6 µM (inactive) | 33.3 µM (inactive) | 11.5 µM (inactive) | 22.8 µM (inactive) | 15 µM (inactive) | 20.7 µM (inactive) | 16.3 µM (inactive) | 28.1 µM (inactive) | 6.71 µM (inactive) | 27.4 µM (inactive) | 26.8 µM (inactive) | 27.5 µM (inactive) | 9.95 µM (inactive) | 26.5 µM (inactive) | 29.4 µM (inactive) | > 100 µM (inactive) | 22.6 µM (inactive) | 12 µM (inactive)
7 | COc1cc(OCc2nc3cc(C(F)(F)F)ccc3nc2-c2ccccc2)cc(OC)c1OC | > 100 µM (inactive) | > 100 µM (inactive) | 17.1 µM (inactive) | 94.6 µM (inactive) | 11.9 µM (inactive) | > 100 µM (inactive) | 95.3 µM (inactive) | 91.4 µM (inactive) | > 100 µM (inactive) | 65.3 µM (inactive) | 64.3 µM (inactive) | > 100 µM (inactive) | > 100 µM (inactive) | 39.6 µM (inactive) | > 100 µM (inactive) | > 100 µM (inactive) | > 100 µM (inactive) | > 100 µM (inactive) | > 100 µM (inactive) | 15.5 µM (inactive)
